# Values quoted from earlier work as cited in article PMC5655430 (PLoS ONE, 2017).
# Tests used:
# [1] = system: glucagon-like peptide 1 receptor (Glp1r)
# Text: (§1) The complex nature of diabetic disorder necessitates use of combination therapies that will not only reduce hyperglycemia, but also correct other elements of diabetes complication, such as dyslipidemia. An increasingly common approach in peptide therapeutics focuses on hybrid peptides that can target two or even three receptors. […] Similar dual agonist peptides, with improved half-life and potency have been rep ...
# [2] = system: glucagon receptor (Gcgr)
# Text: as §1
substance,measurement,setting,value
Oxyntomodulin,Binding and activation on Glp1r,[1],weak binding and activation
same,Binding and activation on Gcgr,[2],weak binding and activation
